Reference: patent US20100017370A1, “T CELL EPITOPE DATABASES” (ANTITOPE LIMITED, priority 2006, published 2010)

System: helper T cells in human PBMCs
Assay: ex vivo T cell proliferation assay of peptides with CD8+ / CD25hi depleted PBMC
Type: cell-based
Conditions: for Number of responding donors: from 50 donors with a range of MHC class haplotypes; for Mean SI: mean stimulation index for responding donors, 50 donors tested; for helper T cell epitope status by T cell assays (database entry): proliferation assay, threshold SI≧2, CD25hi depletion 10 and 20 minutes; for T cell epitope strength (T cell proliferative responses): PBMCs of donor 475, peptide 5 μM

Row | Sequence | Number of responding donors | Mean SI | helper T cell epitope status by T cell assays (database entry) | T cell epitope strength (T cell proliferative responses)
1 | FLLTRILTI | 6 | 3.9 ± 1.6 |  | 
2 | GQHESASLR [control peptide with altered P1 residue] | 0 |  |  | 
3 | ILWEWASYR | 3 | 2.6 ± 0.6 |  | 
4 | TVGYNIPPMPL [26 F→G] |  |  | negative | 
5 | TVFYNIPPMPL [compound 26] |  |  | helper T cell epitopes | strong
6 | GQHASGGLA [control peptide with altered P1 residue] | 0 |  |  | 
7 | FKGEQGPKG | 4 | 3.5 ± 0.7 |  | 
8 | GQHESGPLG [control peptide with altered P1 residue] | 0 |  |  | 
9 | LQHASGGLA [test peptide] | 2 | 2.2 ± 0.2 |  | 
10 | GFGBHIGPLGEP |  |  | non-T cell epitope | 
11 | QSISNWGNWYQQKPG [9-L→G] |  |  | negative | 
12 | PKYRNGQPLNSLKIAT [25 M→G] |  |  | negative | 
13 | IQHESASLR [test peptide] | 3 | 2.6 ± 0.1 |  | 
14 | LSCAAGGRA | 3 | 2.3 ± 0.5 |  | 
15 | FQHTSILLI [test peptide] | 5 | 3.8 ± 0.7 |  | 
16 | FQHESGPLG [test peptide] | 3 | 2.8 ± 0.7 |  | 
17 | GQHWSYPLT [control peptide with altered P1 residue] | 0 |  |  | 
18 | LQHWSYPLT | 5 | 6.3 ± 1.3 |  | 
19 | GDKGVSWYQQGSGQS [2-F→G] |  |  | negative | 
20 | PKYRNMQPLNSLKIAT [compound 25] |  |  | helper T cell epitopes | strong
21 | GQHTSILLI [control peptide with altered P1 residue] | 0 |  |  | 
